Measured values as given in patent US9617230B2, “Creatine prodrugs, compositions and methods of use thereof” (Farmington Pharma Development, priority 2014, dated 2017).

Experiments:
[1] = animals fed a diet containing up to 1% cyclocreatine; cited from earlier work
[2] = athletes and body builders, 2-3 gm/day; cited from earlier work
[3] = Stability of prodrugs in simulated gastric fluid (SGF) with and without pepsin; format: in vitro ADME; conditions: prodrug 10 μM, 37° C.
Procedure: For determination of stability in simulated gastric fluid (SGF), prodrug (10 μM) is incubated in SGF (0.2% NaCl w/v, 0.7% HCl v/v, pH1.2) with and without addition of pepsin (3.2 g of purified pepsin per liter with an activity of 800-2500 units per mg of protein) at 37° C. At selected time points (e.g., 0, 15, 30, 60 and 120 min) 50 μL aliquots are removed and neutralized by addition of 50 μL of 0.1M sodium bicarbonate solution, followed by 150 μL of ice-cold acetonitrile. Samples are centrifuged at 4,000×g for 15 min at 4° C., and the supernatants are removed and analyzed for prodrug, creatine and creatinine concentrations by LC-MSMS (Table 2).

[4] = Stability of prodrugs in simulated intestinal fluid (SIF) with and without pancreatin; format: in vitro ADME; conditions: prodrug 10 μM, 37° C.
Procedure: For determination of stability in simulated intestinal fluid (SIF), prodrug (10 μM) is incubated in SIF (0.68% KH2PO4 w/v, 0.86% NaOH v/v, pH 6.8) with and without addition of pancreatin (1% w/v) at 37° C. At selected time points (e.g., 0, 15, 30, 60 and 120 min) 50 μL aliquots are removed and the reactions are terminated by addition of 150 μL of ice-cold acetonitrile. Samples are centrifuged at 4,000×g for 15 min at 4° C., and the supernatants are removed and analyzed for prodrug, creatine and creatinine concentrations by LC-MSMS (Table 3).

[5] = Metabolic stability in mouse liver microsomal incubations; format: in vitro ADME
Procedure: (§1) Incubations are conducted at 37° C. in the presence or absence of NADPH regenerating system to indicate whether metabolism proceeds via an NADPH requiring enzyme (i.e. P450s, FMOs, NADPH-P450 reductase or other oxidase enzymes). Duplicate samples of prodrugs and controls are prepared and analyzed. Stock solutions of prodrugs are prepared in DMSO (10 mM) and diluted to 0.05 mM in a mixture of 25% MeOH/pH 7.4 phosphate buffer to prepare spiking solutions. The prodrug spiking solutions are aliquoted (10 μL) into 96-well plates. Pre-warmed (37° C.) microsome solution (80 μL) is added to the wells designated for 5, 15, 30, 45 and 60 min time points and incubated for 10 min before initiating the reaction with 10 μL of NADPH regenerating solution. For t=0 min the quench solution (300 μL acetonitrile) is added directly to the prodrug containing well followed by the microsome solution and NADPH solution. Incubations of the prodrugs in heat-inactivated fractions or buffer are conducted to differentiate enzymatic from non-enzymatic degradation. At specified time points (e.g., 0, 5, 10, 20, 30 and 60 min), samples are taken and terminated with an equal volume of cold acetonitrile containing a suitable internal standard (e.g., labetalol, tolbutamide). After quenching, the plates are centrifuged at 4000 g for 20 min. Aliquots (100 μL) are transferred to the analysis plate and diluted with 400 μL ultrapure water (Millipore) for LC-MSMS quantitation of prodrug concentrations, and in some cases creatine and/or creatinine. Chromatography columns (e.g., ACE 5 Phenyl, Phenomenex C18 Synergi Hydro-RP, Atlantis HILIC Silica) are selected based upon the lipophilicity and polarity of each prodrug. LC-MSMS platforms (e.g., Sciex API4000, Sciex API6500) are also selected based on the requirements of each prodrug. The metabolic stability of the compounds of the present disclosure of in mouse liver microsomal incubations is shown in Table 6 and human liver microsomal incubations is shown in Table 7.

[6] = Stability in human plasma incubations; format: in vitro ADME
Procedure: (§2) To determine prodrug stability in mouse, rat, human or plasma from other species, prodrugs (10 μM) or positive controls (10 μM, propantheline or procaine) are incubated in undiluted plasma. Duplicate samples of prodrugs and controls are prepared and analyzed. Stock solutions of prodrugs are prepared in DMSO (10 mM) and diluted to 0.1 mM in pH 7.4 phosphate buffer to prepare spiking solutions. The prodrug spiking solutions are aliquoted (10 μL) into 96-well plates. Pre-warmed (37° C.) plasma (90 μL) is added to the wells designated for 5, 15, 30, 45 and 60 min time points; for t=0 min the quench solution (400 μL acetonitrile) is added directly to the prodrug containing well followed by 90 μL of pre-warmed plasma. At 5, 15, 30, 45 and 60 min 400 μL aliquots of acetonitrile are added to the wells to stop the reaction. After quenching, the plates are shaken for 10 min (600 rpm) and then centrifuged at 5500 g for 15 min. Aliquots (50 μL) are transferred to the analysis plate and diluted with 100 μL ultrapure water (Millipore) for LC-MSMS quantitation of prodrug concentrations, and in some cases creatine and/or creatinine. Chromatography columns (e.g., Atlantis HILIC Silica, Gemini C-18, Ultimate XB-C18) are selected based upon the lipophilicity and polarity of each prodrug. LC-MSMS platforms (e.g., Sciex API4000, Sciex API6500) are also selected based on the requirements of each prodrug. The stabilities of the compounds of the present disclosure (prodrugs) in mouse plasma incubations is shown in Table 4 and stability in human plasma incubations is shown in Table 5.

[7] = Stability in mouse plasma incubations; format: in vitro ADME
Procedure: as §2

[8] = Metabolic stability in human liver microsomal incubations; format: in vitro ADME; conditions: human liver microsomes
Procedure: as §1

[9] = In vitro release of d3-creatine and d3-creatinine from d3-prodrugs in mouse liver homogenate (MLH) incubations; format: in vitro ADME
Procedure: For assessment of the ability of prodrugs to release creatine, and to release creatine preferentially to unwanted cyclization to creatinine, d3-labeled (deuterium labeled methyl group) prodrugs are incubated with liver homogenates (e.g., mouse, human) specially prepared to preserve N-reductase activity. The use of d3-labelled prodrugs is essential in order to distinguish prodrug-derived creatine (d3-creatine) from high concentrations of endogenous (non-labeled) creatine. Incubations (37° C.) are performed in 100 mM potassium phosphate buffer, pH 6.0 to optimize N-reductase activity. Prodrugs are tested at final concentrations of 20 μM and 200 μM. Approximately 4-5 mg of homogenate is used for each reaction. Co-factor (NADH) is included at a final concentration of 1 mM. Benzamidoxime (500 μM final concentration) is used as a positive control for N-reductase activity. N-reductase activity is confirmed by conversion of benzamidoxime into benzamidine. Negative controls include incubations without NADH (to assess NADH-independent prodrug cleavage) and incubations without liver homogenate (but with NAPD) to assess non-enzymatic prodrug cleavage under the conditions of the assay. […] Sample supernatants are analyzed by LC-MSMS (HILIC column) for determination of d3-prodrug, d3-creatine and d3-creatinine levels (Table 8).

With `NC1=NCCN1CC(=O)O` [cyclocreatine] as the compound, how does the adverse effects [1] read?
The adverse effects was “do not exhibit adverse effects”.

For `[2H]C([2H])([2H])N(CC(=O)OC)c1nc(=O)o[nH]1` [Example 28, Step 3, methyl 2-[(5-oxo-2H-1,2,4-oxadiazol-3-yl)-(trideuteriomethyl)amino]acetate], which melting point is on record?
The melting point was 120 to 125 °C.

With `[2H]C([2H])([2H])N(CC(=O)OC(C)C)c1nc(=O)o[nH]1` [Example 28, Step 5C, isopropyl 2-[(5-oxo-2H-1,2,4-oxadiazol-3-yl)-(trideuteriomethyl)amino]acetate] as the compound, how does the melting point read?
The melting point was 143 to 145 °C.

For `[2H]C([2H])([2H])N(CC(=O)O)c1nc(=O)o[nH]1` [Example 28, Step 4, 2-[(5-oxo-2H-1,2,4-oxadiazol-3-yl)-(trideuteriomethyl)amino]acetic acid], which melting point is on record?
Its melting point is 150 to 155 °C.

For `CN(CC(=O)O)c1noc(=O)[nH]1` [Example 27, 2-[methyl-(5-oxo-4H-1,2,4-oxadiazol-3-yl)amino]acetic acid], which melting point is on record?
Its melting point is 150 to 155 °C.

Which adverse side effects [2] does the source give for `CN(CC(=O)O)C(=N)N.O` [creatine monohydrate] here?
The adverse side effects was “without adverse side effects”.

Which melting point does the source give for `CCOC(=O)CN(C)c1noc(=O)[nH]1` [Example 26, ethyl 2-[methyl-(5-oxo-4H-1,2,4-oxadiazol-3-yl)amino]acetate] here?
The melting point was 120 to 123 °C.

Which melting point does the source give for `[2H]C([2H])([2H])N(CCO)c1nc(=O)o[nH]1` [Example 29, 3-[2-hydroxyethyl(trideuteriomethyl)amino]-2H-1,2,4-oxadiazol-5-one] here?
The melting point was 98 to 104 °C.

For `[2H]C([2H])([2H])N(CC(=O)OCCCCCCC)c1nc(=O)o[nH]1` [Compound E, heptyl 2-[(5-oxo-2H-1,2,4-oxadiazol-3-yl)-(trideuteriomethyl)amino]acetate], which half-life at 10 μM ([3]; simulated gastric fluid (SGF) with pepsin, SGF pH 1.2 with pepsin, read-out: T1/2 (min) (+) pepsin) is on record?
The half-life at 10 μM was over 360 min.

And the half-life at 10 μM ([3]; simulated gastric fluid (SGF) without pepsin, SGF pH 1.2 without pepsin, read-out: T1/2 (min) (−) pepsin)?
Its half-life at 10 μM is over 360 min.

And the half-life at 10 μM ([4]; simulated intestinal fluid (SIF) with pancreatin, SIF pH 6.8, title: with pancreatin (1% w/v), read-out: T1/2 (min) (+) pepsin)?
The half-life at 10 μM was over 360 min.

And the half-life at 10 μM ([4]; simulated intestinal fluid (SIF) without pancreatin, SIF pH 6.8, title: without pancreatin, read-out: T1/2 (min) (−) pepsin)?
The half-life at 10 μM was over 360 min.

What about the “% Remaining (No NADPH) 30 min” value ([5]; mouse liver microsomes, no NADPH, 30 min, 10 μM) of the same compound?
The value was 15.6%.

What about the “% Remaining (w/NADPH) 5 min” value ([5]; mouse liver microsomes, with NADPH, 5 min, 10 μM) of the same compound?
The value was 89.1%.

What about the “% Remaining (w/NADPH) 30 min” value ([5]; mouse liver microsomes, with NADPH, 30 min, 10 μM) of the same compound?
Its value is 26.0%.

What about the half-life at 10 μM ([5]; pH 7.4, mouse liver microsomes) of the same compound?
Its half-life at 10 μM is 0.333 h.

And the CLint scaled at 10 μM ([5]; pH 7.4, mouse liver microsomes, read-out: in vivo Clint)?
The CLint scaled at 10 μM was 407 mL/min/kg.

What about the melting point of the same compound?
The melting point was 110 to 115 °C.

What about the half-life at 10 μM [6] of the same compound?
The half-life at 10 μM was 2.57 h.

And the “% Remaining 5 min” value ([6]; 5 min, 10 μM)?
Its value is 101%.

What about the “% Remaining 60 min” value ([6]; 1 h, 10 μM) of the same compound?
The value was 75.6%.

What about the half-life at 10 μM [7] of the same compound?
Its half-life at 10 μM is over 3 h.

What about the “% Remaining 5 min” value ([7]; 10 μM, 5 min) of the same compound?
The value was 100%.

What about the “% Remaining 60 min” value ([7]; 10 μM, 60 min) of the same compound?
The value was 89.0%.

What about the half-life at 10 μM [8] of the same compound?
The half-life at 10 μM was over 1.5 h.

What about the “% Remaining (No NADPH) 30 min” value ([8]; no NADPH, 30 min, 10 μM) of the same compound?
The value was 106%.

What about the CLint scaled at 10 μM ([8]; read-out: in vivo Clint) of the same compound?
The CLint scaled at 10 μM was under 21 mL/min/kg.

And the “% Remaining (w/NADPH) 5 min” value ([8]; with NADPH, 5 min, 10 μM)?
Its value is 103.8%.

And the “% Remaining (w/NADPH) 30 min” value ([8]; with NADPH, 30 min, 10 μM)?
Its value is 82.1%.

What about the “Concentration (μM) at 120 min, Prodrug” value ([9]; Negative Control (No MLH)) of the same compound?
The value was 240 µM.

And the “Concentration (μM) at 120 min, Prodrug” value ([9]; Prodrug + MLH + NADH)?
The value was 4.70 µM.
